Laboratory results taken from the NIST ThermoML archive (doi:10.1016/j.tca.2019.05.008).

Legend:
[1] = Fast Scanning Calorimeter Method
[2] = molar heat capacity at constant pressure; conditions: 101.33 kPa, Crystal, DSC

Cn1c(=O)c2[nH]cnc2n(C)c1=O [3,7-dihydro-1,3-dimethyl-1H-purine-2,6-dione]
[1], Crystal
Conditions	vapor or sublimation pressure [kPa]
441.6 K	0.0028
447.2 K	0.0033
449.1 K	0.0047
451 K	0.0061
457 K	0.0072
459 K	0.0108
460.4 K	0.0109
466.7 K	0.0133
468.9 K	0.0192
469.8 K	0.021
476.5 K	0.0261
478.7 K	0.0365
479.2 K	0.0409
486.2 K	0.0532
496 K	0.1094
498 K	0.1408
498.5 K	0.1485
505.7 K	0.1888
507.4 K	0.2298
508.3 K	0.2823
515.5 K	0.3649
516.8 K	0.3867
518.2 K	0.4909
525.2 K	0.563
526.2 K	0.8232
528.1 K	0.8994
535 K	1.001
537.9 K	1.619

[2]
Conditions	molar heat capacity at constant pressure [J/K/mol]
230 K	159.6
240 K	164.8
250 K	170
260 K	175.1
270 K	180.2
280 K	185.3
290 K	190.3
300 K	195.4
310 K	200.4
320 K	205.3
330 K	210.3
340 K	215.2
350 K	220.1
360 K	224.9
370 K	229.7
380 K	234.5
390 K	239.3
400 K	244
410 K	248.7
420 K	253.4

O=C1c2ccccc2C(=O)c2ccccc21 [9,10(9H,10H)-anthracenedione]
[1], Crystal
Conditions	vapor or sublimation pressure [kPa]
422.8 K	0.0135
427.7 K	0.0152
429.2 K	0.0165
432.2 K	0.0209
437.4 K	0.0345
439.1 K	0.0354
441.6 K	0.0381
447.2 K	0.0511
448.9 K	0.0693
451 K	0.0839
457 K	0.1042
458.8 K	0.148
460.4 K	0.1696
466.7 K	0.1977
468.7 K	0.2749
469.8 K	0.2497
476.5 K	0.3235
478.5 K	0.487

[2]
Conditions	molar heat capacity at constant pressure [J/K/mol]
230 K	182.5
240 K	188.9
250 K	195.4
260 K	201.9
270 K	208.3
280 K	214.8
290 K	221.3
300 K	227.8
310 K	234.3
320 K	240.8
330 K	247.3
340 K	253.8
350 K	260.4
360 K	266.9
370 K	273.5
380 K	280
390 K	286.6
400 K	293.2
410 K	299.8
420 K	306.4

Cn1c(=O)c2c(ncn2C)n(C)c1=O [caffeine]
[1], Crystal 1
Conditions	vapor or sublimation pressure [kPa]
394.7 K	0.0031
398.4 K	0.0035
399.8 K	0.0039
404.1 K	0.0067
408.2 K	0.0092
409.7 K	0.0099
413.5 K	0.0116
417.9 K	0.0158
419.5 K	0.019
422.8 K	0.023
427.7 K	0.0336
429.4 K	0.0376
432.2 K	0.0467
437.4 K	0.0651
439.3 K	0.0736
441.6 K	0.0874
447.2 K	0.1252
449.1 K	0.1611
451 K	0.1622
457 K	0.2346
459 K	0.2609
460.4 K	0.2914
466.7 K	0.4121
468.9 K	0.4821
469.8 K	0.4864
476.5 K	0.7169
478.7 K	0.8343
479.2 K	0.9112
486.2 K	1.078
488.6 K	1.415
